Measured values from US20060183773A1, “Uses of methylphenidate derivatives” (priority 2005, published 2006).

Tests used:
TNFα = TNFα release from LPS-stimulated THP-1 monocytes, ELISA; format: cell-based, human; conditions: THP-1, LPS 200 ng/ml, Cpd II 15 μg/ml, Dex 10 μM
Procedure: THP-1 is a monocyte cell line obtained from American Type Culture Collection (ATCC) (catalog no. TIB-202). […] After 1 hour, lipopolysaccharide (LPS) (obtained from Sigma) was added to the cultures to give a final concentration of 200 ng/ml, and the cells were then incubated for an additional 4 hours or for an additional 24 hours. After the incubation, the cells were centrifuged, and the supernatants were collected. The concentrations of IL-8 and TNFα in the supernatants were determined by ELISA.
The TNFα ELISA was performed as described in Example 2.

RAP-1 = RAP-1 activation pulldown assay in TRiPS cells; format: cell-based, human; conditions: CD3/CD28 beads + 15 μg/ml
Procedure: Day 10 TRiPS cells, 1×10^6, were incubated with 15 μg/ml of the compound of formula II (Cpd II) for 1 hour at 37° C. Then, the cells were incubated with CD3/CD28 beads (1 μl per 100,000 cells) (obtained from Dynal) for 10 minutes at 37° C. The cells were then lysed with a mild buffer (supplied with Pierce EZ-Detect activation kit described below) to produce cell extracts. Protein concentrations of the resulting extracts were determined by bicinchoninic acid (BCA) assay (Pierce) and placed on ice for immediate use.
Pulldown assays were performed using Pierce EZ-Detect activation kits according to the manufacturer's instructions utilizing GST-RAF-1-RBD and GST-RalGDS-RBD for RAS and RAP-1 respectively. Briefly, 400 μg total protein from each extract was combined with recombinant protein and glutathione resin and incubated at 4° C. for one hour with gentle shaking. The resin was then washed to remove unbound protein and the activated RAS and RAP-1 proteins were removed by boiling in the presence of SDS-PAGE loading dye containing reducing agent. RAS and RAP-1 western blots were performed to visualize the proteins using antibodies supplied with the kit. Densitometry of the X-ray films was done by scanning and computer analysis.

IL-8 [1] = assay: IL-8 release by TNFα-stimulated HUVECs, ELISA; format: cell-based, human; conditions: HUVECs lot 8710, no TNFα, no additives 207.15
IL-4 = assay: Custom AntibodyArray, TRiPS cells: IL-4; format: cell-based, human; conditions: 15 μg/ml, 30 minutes
Procedure: (§1) Day 18 TRiPS cells, 1×10^6, were incubated for 30 minutes at 37° C., either with nothing added (“Nil”), with 1 μl CD3/CD28 Dynabeads (Dynal, Oslo, Norway) (“CD3/CD28 beads”) per 100,000 cells, or with CD3/CD28 beads and 15 μg/ml of the compound of formula II (Cpd II). After the incubation, the cells were lysed in Cell-Lytic Mammalian Cell Extraction Reagent (Sigma). After centrifugation to pellet cellular debris, the supernatants (cell extracts) were obtained.
(§2) The cell extracts (supernatants) were then analyzed using a Custom AntibodyArray™ manufactured by Hypromatrix Inc., Worcester, Mass., following the manufacturer's instructions. The Custom AntibodyArray™ is a nylon membrane blotted with antibodies to the proteins listed below. Briefly, the cell extracts were incubated with duplicate Custom AntibodyArray™'s for 2 hours at room temperature with slow shaking, followed by three washes with Tris buffer (150 mM NaCl, 25 mM Tris, 0.05% Tween-20, pH 7.5). HRP-labeled antibodies specific for phosphorylated-tyrosine, phosphorylated-serine and phosphorylated-threonine in Tris buffer were added, and the arrays incubated for 2 hours. After three more washes with Tris buffer, a peroxidase-reactive luminescent substrate was added. The arrays were visualized by exposure to X-ray film. Densitometry of the X-ray films was measured by scanning and computer analysis.

VAV = assay: Custom AntibodyArray, TRiPS cells: VAV; format: cell-based, human; conditions: 15 μg/ml, 30 minutes
Procedure: as §1, §2

[2] = tested on: MC/9 murine fibroblast cell line; assay: MC/9 cell proliferation, Promega cell titer assay; format: cell-based; conditions: 72 hours
Procedure: Cells of the MC/9 murine […] cell line (obtained from ATCC, catalog no. CRL-8305) were placed into the wells of a 96-well tissue culture plate at 25,000 cells/well. The culture medium was Delbecco's Modified Eagle's Medium (DMEM) (obtained from Cambrex) containing 10% fetal calf serum (FCS) (obtained from ATCC). Nil control wells contained no additives. The remaining wells contained either 25 ng/ml murine nerve growth factor (NGF) (obtained from Upstate Biotechnology, Lake Placid, NY) or 25 ng/ml NGF and 5% TSTIM (a culture supplement prepared from rats and containing concanavalin A which was obtained from BD Biosciences). […] After 72 hours of culture at 37° C. and 5% CO2, cell proliferation was evaluated by the Promega cell titer assay as described in Example 1.

IL-7y = assay: Custom AntibodyArray, TRiPS cells: IL-7y; format: cell-based, human; conditions: 15 μg/ml, 30 minutes
Procedure: as §1, §2

IL-8 [3] = assay: IL-8 release by LPS-stimulated HUVECs, ELISA; format: cell-based, human; conditions: for IL-8: LPS 200 ng/ml overnight + 15 μg/ml
Procedure: Passage 4 (i.e., four cell population doublings) human umbilical vein endothelial cells (HUVECs), human source lot number 9713 (obtained from ATCC), were put into the wells of a 48-well tissue culture plate at 20,000 cells/well in 500 μl of endothelial growth medium-2 (EGM-2) complete medium (but without serum or ascorbate) (obtained from Cambrex) supplemented with ITSS (insulin, transferrin and sodium selenite) (obtained from Sigma). Also, passage 4 HUVECs, human source lot number 7016 (obtained from ATCC), were put into the wells of a 48-well tissue culture plate at 20,000 cells/well in 500 μl of EGM-2 complete medium (but without serum or ascorbate) supplemented with ITSS. The following additives were added to the cells: water (vehicle control) and 15 μg/ml of the compound of formula II (Cpd II). After incubation for 1 hour at 37 ° C. and 5% CO2, lipopolysaccharide (LPS) (obtained from Sigma) was added to give a final concentration of 200 ng/ml, and the cells were incubated overnight at 37° C. and 5% CO2. After this incubation, the supernatants were collected, and the amount of IL-8 in the supernatants determined by ELISA as described in Example 4.

## COC(=O)C(c1ccc(-c2ccccc2)cc1)C1CCCCN1 (centres unmarked) [Cpd II]
TNFα; Homo sapiens, 24 hours
  inhibition at 15 µg/mL: 53%
TNFα; 24 hours, LPS alone 138.655
  Mean TNFα Concentration: 65.370 ± 0.891 pg/mL
TNFα
  release of TNFα from LPS-stimulated monocytes (in words): significantly inhibited the release of TNFα
RAP-1
  inhibition of RAP-1 (in words): appeared to inhibit RAP-1
RAP-1; no treatment 259.27, beads only 213.66
  Integrated Optical Density for RAP-1 assay: 87.26
IL-8 [1]; 15 μg/ml
  Mean IL-8: 400.35 pg/mL
IL-8 [1]; 30 μg/ml
  Mean IL-8: 0 pg/mL
IL-4
  Effect of Cpd II on the protein in CD3/CD28 stimulated TRiPS cells: Decreased level back to basal levels (Nil control)
VAV
  Effect of Cpd II on the protein in CD3/CD28 stimulated TRiPS cells: No effect
[2]; MC/9, NGF 25 ng/ml + 1 μg/ml, NGF + water 0.101
  Mean OD 530 nm: 0.117 ± 0.015
[2]; MC/9, NGF 25 ng/ml + 5 μg/ml, NGF + water 0.101
  Mean OD 530 nm: 0.108 ± 0.012
[2]; MC/9, NGF 25 ng/ml + 15 μg/ml, NGF + water 0.101
  Mean OD 530 nm: 0.049 ± 0.016
[2]; MC/9, NGF + TSTIM + 1 μg/ml, NGF + TSTIM + water 0.365
  Mean OD 530 nm: 0.428 ± 0.027
[2]; MC/9, NGF + TSTIM + 5 μg/ml, NGF + TSTIM + water 0.365
  Mean OD 530 nm: 0.373 ± 0.016
[2]; MC/9, NGF + TSTIM + 15 μg/ml, NGF + TSTIM + water 0.365
  Mean OD 530 nm: 0.326 ± 0.024
IL-7y
  Effect of Cpd II on the protein in CD3/CD28 stimulated TRiPS cells: Decreased level back to basal levels (Nil control)
IL-8 [3]; 7016 HUVECs, LPS only 53.3
  IL-8: Below detection
IL-8 [3]; 9713 HUVECs, LPS only 485.0
  IL-8: 49.8 pg/mL
IL-8 [3]; LPS 200 ng/ml + 15 μg/ml
  IL-8 release by the 7016 HUVECs (in words): complete eliminated IL-8 release
  decrease of IL-8 release in the 9713 HUVECs: 90%
